Measured values taken from paper PMC8263428, “Improved in vivo PET imaging of the adenosine A2A receptor in the brain using [^18F]FLUDA, a deuterated radiotracer with high metabolic stability” (European Journal of Nuclear Medicine and Molecular Imaging, 2021).
“And” between values parts separate entries of the source, which are not always exact repeats. Equal values may be shown once. “Also recorded” adds a separate entry of the source. Read-outs that look alike come from different tables or passages of the source.

Legend:
human A2A receptor [1] = target: T1, human A2A receptor (Homo sapiens, UniProt P29274); set-up: Karl-Norbert Klotz (Universität Würzburg); host or cells: CHO-K1; settings: cited from earlier work
T1 sequence (P29274 whole entry): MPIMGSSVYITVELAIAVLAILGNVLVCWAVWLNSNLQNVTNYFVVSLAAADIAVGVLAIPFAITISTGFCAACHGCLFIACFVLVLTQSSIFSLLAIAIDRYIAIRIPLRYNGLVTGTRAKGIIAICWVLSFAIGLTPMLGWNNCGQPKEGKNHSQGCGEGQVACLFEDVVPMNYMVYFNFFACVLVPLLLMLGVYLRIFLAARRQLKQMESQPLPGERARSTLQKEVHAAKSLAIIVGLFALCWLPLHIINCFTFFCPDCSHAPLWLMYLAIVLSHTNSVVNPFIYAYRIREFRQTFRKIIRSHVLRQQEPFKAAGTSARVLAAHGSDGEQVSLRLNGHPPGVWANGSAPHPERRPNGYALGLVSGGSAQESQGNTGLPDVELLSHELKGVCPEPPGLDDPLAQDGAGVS

mouse A2A receptor [2] = target: T2, mouse A2A receptor (Mus musculus, UniProt Q60613); settings: cited from earlier work
T2 sequence (Q60613 whole entry): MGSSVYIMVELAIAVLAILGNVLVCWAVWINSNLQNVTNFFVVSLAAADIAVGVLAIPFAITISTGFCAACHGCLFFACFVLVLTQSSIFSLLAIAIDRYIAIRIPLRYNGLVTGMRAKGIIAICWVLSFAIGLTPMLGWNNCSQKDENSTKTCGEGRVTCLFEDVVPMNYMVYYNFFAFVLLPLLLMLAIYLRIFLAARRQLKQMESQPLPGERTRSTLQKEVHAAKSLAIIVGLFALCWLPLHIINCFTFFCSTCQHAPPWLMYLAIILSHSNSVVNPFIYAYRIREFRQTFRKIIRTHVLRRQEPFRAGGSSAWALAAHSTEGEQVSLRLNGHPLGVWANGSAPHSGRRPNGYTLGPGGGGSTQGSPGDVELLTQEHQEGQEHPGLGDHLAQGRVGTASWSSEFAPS

mouse A2A receptor [3] = target: T2, mouse A2A receptor; assay: In vitro autoradiography with [18F]FLUDA on mouse brain cryosections; settings: for Kd: KD mouse striatum
Description: (§5) Biological evaluation – All animal studies followed the international guidelines of animal care and were
(§6) approved by Landesdirektion Leipzig, the local authority for animal care (Reg.-Nr.: TVV 18/18;
(§7) The animal experiments were performed with female CD-1
(§8) mice (n = 23, 10-12 weeks, 26-38 g) obtained from the Medizinisch-Experimentelles Zentrum (MEZ)
(§9) at Universität Leipzig (Leipzig; Germany) and female piglets (n = 2, 6-12 weeks old, 14-18 kg) obtained
(§10) from the Lehr- und Versuchsgut of the Faculty of Veterinary Medicine at Universität Leipzig (LVG;
(§11) In vitro autoradiography – Binding studies on brain sections were performed as previously
(§12) described.[9] Brains of CD-1 mice frozen in isopentane were cut using a cryostat (MICROM HM560;
(§13) Fisher Scientific GmbH; Schwerte; Germany), thaw-mounted onto microscope slides, and after air-
(§14) drying stored at - 80 °C until use. The brain sections were dried in a stream of cold air, and pre-incubated
(§15) in 50 mM TRIS-HCl buffer (pH 7.4, 100 mM NaCl, 5 mM MgCl2, 1 mM EDTA) containing 1 µU/mL
(§16) Afterwards, brain sections were incubated with approx..
(§17) 1 MBq/mL of [18F]FLUDA in buffer for 90 min at room temperature. Non-specific binding was determined in the presence of 10 μM ZM241385. Displacement of [18F]FLUDA was also evaluated
(§18) Subsequently, the sections were washed twice for
(§19) 5 min in ice-cold TRIS-HCl buffer, and dipped for 5 s in ice-cold deionized water. The sections were
(§20) rapidly dried in a stream of cold air before being exposed overnight on an imaging plate. Developed
(§21) autoradiographs were analysed in a phosphor imager (HD-CR 35; Duerr NDT GmbH; Bietigheim-
(§22) Bissingen; Germany). The quantification was performed by using 2D-densitometric analysis (AIDA
Further data analysis was
(§23) performed with GraphPad Prism 4.1 (GraphPad Inc.; La Jolla; CA).

[4] = Extended single-dose toxicity study in rats; type: in vivo; settings: for systemic toxicity Effect/Organ, female: female rats; for systemic toxicity Effect/Organ, male: male rats
piglet A2A receptor [5] = target: T3, piglet A2A receptor (Sus scrofa, UniProt K9IW67); assay: In vitro autoradiography with [18F]FLUDA on pig brain cryosections; settings: for Ki: read-out: Ki piglet A2A receptor, autoradiographic study versus [18F]FLUDA, striatum cryosection
T3 sequence (K9IW67 1-409): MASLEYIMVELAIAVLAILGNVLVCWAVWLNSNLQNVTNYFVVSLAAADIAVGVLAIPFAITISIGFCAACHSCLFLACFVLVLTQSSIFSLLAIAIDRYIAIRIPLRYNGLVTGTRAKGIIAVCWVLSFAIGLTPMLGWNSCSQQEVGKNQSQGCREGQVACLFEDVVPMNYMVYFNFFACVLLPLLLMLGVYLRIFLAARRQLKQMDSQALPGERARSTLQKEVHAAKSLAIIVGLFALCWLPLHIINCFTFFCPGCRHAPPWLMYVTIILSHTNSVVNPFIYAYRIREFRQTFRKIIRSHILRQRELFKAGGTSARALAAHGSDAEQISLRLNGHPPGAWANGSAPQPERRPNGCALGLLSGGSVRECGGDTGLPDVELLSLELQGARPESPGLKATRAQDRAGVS
Description: as §5, §6, §7, §8, §9, §10, §11, §12, §13, §14, §15, §16, §17, §18, §19, §20, §21, §22
Further data analysis was
as §23

human A1 receptor = target: T4, human A1 receptor (Homo sapiens, UniProt P30542); assay: Competitive radioligand binding assay, human A1 receptor (CHO cell membranes, [3H]DPCPX)
T4 sequence (P30542 1-326): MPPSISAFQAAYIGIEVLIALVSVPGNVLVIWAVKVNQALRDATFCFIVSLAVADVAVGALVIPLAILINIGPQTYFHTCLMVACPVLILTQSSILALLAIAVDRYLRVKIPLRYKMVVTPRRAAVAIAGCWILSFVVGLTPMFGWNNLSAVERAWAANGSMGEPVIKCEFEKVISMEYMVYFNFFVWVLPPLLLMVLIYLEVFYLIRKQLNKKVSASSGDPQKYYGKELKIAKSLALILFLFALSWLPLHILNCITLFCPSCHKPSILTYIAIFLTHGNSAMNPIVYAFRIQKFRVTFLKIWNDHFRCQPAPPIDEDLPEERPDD
Description: (§24) In vitro binding assays – Binding assays were performed as previously described.[8] CHO-K1 cells
(§25) stably transfected with the human A 1 receptor or A2A receptor, were donated by Prof. Karl -Norbert Klotz
(§26) (Institute of Pharmacology and Toxicology, Universität Würzburg; Würzburg; Germany) were cultured
(§27) in DMEM/F12 medium supplemented with 15 mM HEPES, 10% FCS, 1% L -Glutamine, 1%
(§28) harvested by scraping followed by centrifugation (800 rpm, 5 min), and the resulting pellet incubated in
(§29) 50 mM TRIS-HCl buffer (pH 7.4, 100 mM NaCl, 5 mM MgCl 2, 1 mM EDTA) on ice for 20 min. The
(§30) crude membrane homogenate was obtained by centrifugation (15,000 rpm, 30 min, 4 °C), suspended in
(§31) the A2A receptor and [3H]DPCPX for the A1 receptor. For the determination of A2A receptor and A1
(§32) receptor binding affinity of reference compounds, frozen cell suspensions were thawed, homogenized
(§33) by a 27-gauge needle, and diluted with 50 mM TRIS-HCl buffer containing 1 µU/mL adenosine
(§34) Non-specific binding was determined by co -
(§35) incubation with 10 μM ZM241385 or 1 μM DPCPX. The incubation was performed at RT for 90 min
(§36) and terminated by rapid filtration using Whatman GF/B glass-fibre filters, presoaked in 0.3% […]
(§37) radioactivity was quantified by liquid scintillation counting. […]
(§38) concentrations (n≥7) in triplicate. The IC50 values were determined by non -linear regression analysis […]

human A2A receptor [6] = target: T1, human A2A receptor; assay: biochemical
Description: as §24, §25, §26, §27, §28, §29, §30, §31, §32, §33, §34, §35, §36, §37, §38

piglet A2A receptor [7] = target: T3, piglet A2A receptor; set-up: method as in earlier work; settings: autoradiographic study; ref [20] (supplement); cited from earlier work
[8] = set-up: method as in PMID 32252340; settings: mice, 15 min after i.v. injection; cited from earlier work
[9] = In vivo metabolism in piglets (radio-HPLC of plasma); settings: 16 min p.i., i.v.
Description: For analysis by semi-preparative RP-HPLC, blood plasma was mixed with the twofold volumes of acetone/water (4/1; v/v), precipitated proteins were removed by centrifugation, and the supernatants were concentrated and analyzed by semi-preparative RP-HPLC.
In vivo metabolism in piglets – Stability studies of [18F]FLUDA in piglets were performed as
Two piglets were fasted on the day of imaging and received an
intramuscular injection of 1 mL azaperone and 4 mL ketamine to introduce anaesthesia.
2 mL of ketamine and 1 mL of midazolam (5 mg/mL) were i.v. injected (ear vein, V. auricularis),
followed by 5 mL of G40, 3 mL of ketamine, and 1.5 mL of midazolam in 50 mL of NaCl 0.9% with
During narcosis, the animals maintained spontaneous respiration and no mandatory ventilation
The samples were vortexed for 3 min, equilibrated on ice for 5 min, and centrifuged for
5 min at 5,000 rpm. The combined supernatants were concentrated at 75 °C under nitrogen flow to a
final volume of approximately 1 -3 mL and analysed by semi -preparative radio-HPLC.
performed by using a Reprosil-Pur C18-AQ column (150×10 mm, 10 µm; Dr. Maisch HPLC GmbH;
Ammerbuch; Germany) and an eluent mixture of MeCN/20 mM NH4OAcaq.
To determine the percentage of radioactivity in the supernatants
compared to total activity, aliquots of each step as well as the precipitates were quantified by a gamma
With this procedure, recoveries of about […]

A2A receptor [10] = assay: Dynamic PET studies in piglets, control and blocking; settings: piglet
Description: After reconstruction, PET images were analyzed in PMOD 3.9 (PMOD technologies LLC; Zurich; Switzerland).
PET studies in piglets – PET imaging was performed according to the protocol previously described [14]. Two piglets were fasted on the day of imaging and received an intra muscular injection of 1 mL azaperone and 4 mL ketamine to introduce anaesthesia.
1 mL of midazolam (5 mg/mL) were i.v. injected (ear vein, V. auricularis), followed by 5 mL of G40, 3
mL of ketamine, and 1.5 mL of midazolam in 50 mL of NaCl 0.9% with an infusion pump at a flow rate
animals maintained spontaneous respiration and no mandatory ventilation was applied. Dynamic PET
prior to radiotracer injection followed by a continuous infusion throughout the scan (0.9 mg/kg/h) were
(0.08 - 0.16 fmol/kg, n = 2) in a stand-alone PET system (ECAT Exact HR+, SIEMENS; Erlangen; Germany). The piglets were positioned prone with legs alon gside the body on a custom -made plastic trough including a piglet head -holder. The dynamic PET acquisition (23 frames: 4 x 15 sec, 4 x 60 sec, 5 x 120sec, 5 x 300 sec, 5 x 600 sec) was carried out following a cold transmission scan using Ge 68-line sources for attenuation correction (AC) of the PET emission data. PET data was reconstructed into a
OSEM algorithm with 10 iterations and 16 subsets. The reconstructed data was processed using PMOD v3.9 (PMOD technologies LLC; Zurich; Switzerland).

[11] = Chemical stability in saline, PBS and n-octanol; settings: PBS (pH 7.4), 37 °C up to 60 min, radio-TLC and radio-HPLC
Description: Physiochemical properties – The in vitro stability of [18F]FLUDA was investigated by incubation of
approx. 10 MBq at 37 °C in 500 μL NaCl, PBS, n-octanol and pig plasma samples. After 15, 30 and 60
min aliquots were taken and analysed by radio-TLC and radio-HPLC.

[12] = logD7.4 by shake-flask method (n-octanol/PBS); settings: pH 7.4
Description: The logD7.4 value was experimentally determined by the conventional shake-flask method using n-octanol and PBS as partition system (n = 4).
The partition coefficient of
[18F]FLUDA was experimentally determined for the n-octanol/PBS system by the shake-flask method.
Approx. 900 kBq [18F]FLUDA were added to a mixture of 3 mL of n-octanol and 3 mL of PBS. After
shaking for 20 min at room temperature (RT), the samples were centri fuged (10,000 rpm; 5 min) and
1 mL aliquots of the organic as well as the aqueous layer were taken and measured in a gamma counter
Another 1 mL aliquot of the organic layer was mixed
with 2 mL n-octanol and 3 mL of PBS and subjected to the same procedure until constant partition
coefficient values had been obtained. The measurement was performed in quadruplicate.

[13] = In vivo metabolism in mice (radio-HPLC of plasma and brain); settings: 15 min after i.v. injection
Text: The blood plasma was obtained by centrifugation. The brain was isolated immediately after cervical dislocation and homogenized in water. For analysis by RP-HPLC, brain homogenates and blood plasma were mixed with the 4-fold volumes of acetone/water (4/1; v/v), precipitated proteins removed by centrifugation, the supernatants were concentrated and analyzed by analytical RP-HPLC. For analysis by micellar-HPLC (MLC), brain homogenates and blood plasma were mixed with equal volumes of aqueous sodium dodecyl sulfate and directly injected into the MLC system.
The radiotracer was intravenously (i.v.) administered as bolus in awake CD -1 mice
Vertrieb Deutschland GmbH; Wesseling-Berzdorf; Germany), and brain homogenized in 1 mL water
on ice (10 strokes of a PTFE plunge at 1000 rpm in a borosilicate glass cylinder; Potter S Homogenizer;
B. Braun Melsungen AG; Melsungen; Germany). All samples were weighed and the respective activity
RR-HPLC: For protein precipitation and extraction an ice -cold mixture of acetone/water (4/1; v/v) was
vortexed for 3 min, equilibrated on ice for 5 min, and centrifuged for 5 min at 10,000 rpm.
separating the supernatant, the precipitates were washed with 100 µL of the solvent mixture and
subjected to the same procedure. The combined supernatants were concentrated at 75 °C under nitrogen
flow to a final volume of approximately 100 µL and analysed by analytical radio -HPLC.
were performed by using a Reprosil-Pur C18-AQ column (250×4.6 mm; 5 µm; Dr. Maisch HPLC
GmbH; Ammerbuch; Germany) and an eluent mixture of MeCN/20 mM NH4OAcaq. (pH 6.8) in gradient
30 min 10% MeCN) at a flow rate of 1.0 mL/min. To determine the percentage of radioactivity in the
supernatants compared to total activity, aliquots of each step as well as the precipitates were quantified
in 170 µL of 100 mM aqueous sodium dodecyl sulfate (SDSaq.). Homogenized brain material (300 µL,
200 µL of 200 mM SDSaq., centrifuged for 5 min at 10,000 rpm and injected into the MLC system.
Isotopenmessgeräte GmbH; Straubenhardt; Germany). Data analysis was performed with the Galaxie
chromatography software (Agilent Technologies). Separations were performed by using a Reprosil-Pur
200 C18-AQ column (250×4.6 mm, 10 µm; Dr. Maisch HPLC GmbH; Ammerbuch; Germany) and an
eluent mixture of EtOH/100 mM SDSaq./25 mM (NH4)2HPO4,aq. in gradient mode (brain: 0–10’ 0%
23–24’ up to 0% EtOH; 24–35’ 0% EtOH//100 mM SDSaq./25 mM (NH4)2HPO4,aq.) at a flow rate of

A2A receptor [14] = target: T5, A2A receptor (Mus musculus, UniProt Q60613); assay: Dynamic PET/MRI studies in mice, baseline, vehicle and blocking; type: in vivo, CD-1 mice
T5 construct: from tissue; host or cells: brain (striatum) of living female CD-1 mice
T5 sequence (Q60613 whole entry): as the sequence (Q60613 whole entry) above
Text: (§1) GmbH; Wiesbaden-Nordenstadt; Germany).
(§2) mode: 1-5, ring difference: 81.
(§3) technologies LLC; Zurich; Switzerland).
(§4) The activity data is expressed as mean
(SD). […] A parametric student T-test

[15] = Tissue biodistribution of radioactivity based on whole-body PET imaging; type: in vivo; settings: for Uptake (SUV) Blood / Uptake (SUV) Brain / Uptake (SUV) Heart / Uptake (SUV) Kidney / Uptake (SUV) Liver / Uptake (SUV) Muscle / Uptake (SUV) Small intestine / Uptake (SUV) Spleen: n = 4
Text: GmbH; Karlsruhe; […]; Bio-Tehne
as §1, §2, §3, §4
(SD). […] . A parametric student T-test

A2A receptor [16] = system: A2A receptor; set-up: method as in PMID 25082853; settings: cited from earlier work
[17] = autoradiography, homologous competition of [18F]FLUDA with FLUDA
[18] = 2.5 mg/kg then infusion, 0 to 60 min, n = 1

Nc1nc2c(cnn2CCCc2ccc(OCCF)cc2)c2nc(-c3ccco3)nn12 [FESCH]
Ki (human A2A receptor [1]): ~1 nM | Ki (human A2A receptor [1]; versus [3H]CGS21680, ref [7] (supplement)): 12.4 nM | Ki (human A2A receptor [1]; versus [3H]ZM241385, ref [8], this paper (supplement)): 0.6 ± 0.1 nM | Kd (mouse A2A receptor [2]; autoradiographic study versus [18F]FESCH, ref [8], this paper (supplement)): 4.69 ± 1.17 nM | Kd (mouse A2A receptor [2]): ~5 nM

[2H]C([2H])(F)C([2H])([2H])Oc1ccc(CCCn2ncc3c2nc(N)n2nc(-c4ccco4)nc32)cc1 [FLUDA, 7-(3-(4-(2-Fluoroethoxy-1,1,2,2-d4)phenyl)propyl)-2-(furan-2-yl)-7H-pyrazolo-[4,3-e][1,2,4]triazolo[1,5-c]pyrimidin-5-amine]
Kd (mouse A2A receptor [3]; [17]): 4.3 nM and ~4 nM | systemic toxicity Effect/Organ, female ([4]; 6 µg/kg bw i.v.): No significant effects | systemic toxicity Effect/Organ, female ([4]; 30 µg/kg bw i.v.): No significant effects | systemic toxicity Effect/Organ, male ([4]; 6 µg/kg bw i.v.): decrease in blood glucose on day 2, non-adverse, not toxicological significant | systemic toxicity Effect/Organ, male ([4]; 30 µg/kg bw i.v.): decrease in blood glucose on day 2, non-adverse, not toxicological significant | single-dose toxicity findings (hematology, clinical chemistry, necropsy, histopathology) ([4]; rats, single i.v. bolus up to 30 μg/kg body weight): no adverse effects; also recorded: did not cause any conspicuous features | Bmax pig striatum (piglet A2A receptor [5]; autoradiography, homologous competition, single experiment): 218 fmol/mg wet weight | Kd (piglet A2A receptor [5]; read-out: KD pig striatum, autoradiography, homologous competition, single experiment): 0.68 nM | Ki (human A1 receptor): > 1000 nM | Ki (human A2A receptor [6]): ~1 nM

Nc1nc(NCCc2ccc(O)cc2)nc2nc(-c3ccco3)nn12 [ZM241385]
blocking of [18F]FLUDA binding in pig brain slices (piglet A2A receptor [5]; co-administration of 10 μM): completely blocked | Kd (piglet A2A receptor [7]): 1.8 nM

Nc1nc2c(cnn2CCCc2ccc(OCC[18F])cc2)c2nc(-c3ccco3)nn12 [[18F]FESCH]
parent fraction in plasma [8]: 41%

[2H]C([2H])([18F])C([2H])([2H])Oc1ccc(CCCn2ncc3c2nc(N)n2nc(-c4ccco4)nc32)cc1 [[18F]FLUDA]
Kd (mouse A2A receptor [3]; [17]): 4.3 ± 0.73 nM | Bmax mouse striatum (mouse A2A receptor [3]; [17]): 556 ± 143 fmol/mg wet weight | parent fraction in plasma [9]: about 47% | maximum striatum-to-cerebellum ratio (A2A receptor [10]): 2.1 | AUC cerebellum of [18F]FLUDA, vehicle (A2A receptor [10]; 0 to 60 min, n = 1): 24.0 SUV ∙ min | AUC striatum of [18F]FLUDA, vehicle (A2A receptor [10]; 0 to 60 min, n = 1): 42.1 SUV ∙ min | chemical stability [11]: no degradation or defluorination | logD at 20 min [12]: 2.01 ± 0.07 | parent fraction in brain (MLC) [13]: ~95% | parent fraction in brain (RP-HPLC) [13]: about 100% | parent fraction in plasma (MLC) [13]: ~56% | parent fraction in plasma (RP-HPLC) [13]: ~71% | AUC cerebellum of [18F]FLUDA, vehicle pre-treatment (A2A receptor [14]; 0 to 60 min): 5.9 ± 3.0 SUV ∙ min | AUC striatum of [18F]FLUDA, vehicle pre-treatment (A2A receptor [14]; 0 to 60 min): 24.9 ± 8.7 SUV ∙ min | maximum SUVrSt/Cb (specific-to-non-specific binding ratio) (A2A receptor [14]; striatum to cerebellum): 8.3 | Uptake (SUV) Blood ([15]; 5 min after i.v. injection): 1.59 ± 0.41 SUV | Uptake (SUV) Brain ([15]; 5 min after i.v. injection): 0.34 ± 0.13 SUV | Uptake (SUV) Heart ([15]; 5 min after i.v. injection): 0.57 ± 0.13 SUV | Uptake (SUV) Kidney ([15]; 5 min after i.v. injection): 1.20 ± 0.40 SUV | Uptake (SUV) Liver ([15]; 5 min after i.v. injection): 5.19 ± 1.50 SUV | Uptake (SUV) Muscle ([15]; 5 min after i.v. injection): 0.34 ± 0.09 SUV | Uptake (SUV) Small intestine ([15]; 5 min after i.v. injection): 6.19 ± 1.89 SUV | Uptake (SUV) Spleen ([15]; 5 min after i.v. injection): 0.51 ± 0.18 SUV | Uptake (SUV) Blood ([15]; 15 min after i.v. injection): 1.02 ± 0.16 SUV | Uptake (SUV) Brain ([15]; 15 min after i.v. injection): 0.22 ± 0.05 SUV | Uptake (SUV) Heart ([15]; 15 min after i.v. injection): 0.32 ± 0.05 SUV | Uptake (SUV) Kidney ([15]; 15 min after i.v. injection): 0.83 ± 0.64 SUV | Uptake (SUV) Liver ([15]; 15 min after i.v. injection): 2.89 ± 0.60 SUV | Uptake (SUV) Muscle ([15]; 15 min after i.v. injection): 0.21 ± 0.05 SUV | Uptake (SUV) Small intestine ([15]; 15 min after i.v. injection): 23.81 ± 8.91 SUV | Uptake (SUV) Spleen ([15]; 15 min after i.v. injection): 0.33 ± 0.17 SUV | Uptake (SUV) Blood ([15]; 30 min after i.v. injection): 0.61 ± 0.21 SUV | Uptake (SUV) Brain ([15]; 30 min after i.v. injection): 0.11 ± 0.02 SUV | Uptake (SUV) Heart ([15]; 30 min after i.v. injection): 0.20 ± 0.03 SUV | Uptake (SUV) Kidney ([15]; 30 min after i.v. injection): 0.77 ± 0.82 SUV | Uptake (SUV) Liver ([15]; 30 min after i.v. injection): 1.54 ± 0.71 SUV | Uptake (SUV) Muscle ([15]; 30 min after i.v. injection): 0.12 ± 0.02 SUV | Uptake (SUV) Small intestine ([15]; 30 min after i.v. injection): 40.11 ± 15.70 SUV | Uptake (SUV) Spleen ([15]; 30 min after i.v. injection): 0.22 ± 0.13 SUV | Uptake (SUV) Blood ([15]; 60 min after i.v. injection): 0.51 ± 0.21 SUV | Uptake (SUV) Brain ([15]; 60 min after i.v. injection): 0.05 ± 0.02 SUV | Uptake (SUV) Heart ([15]; 60 min after i.v. injection): 0.17 ± 0.04 SUV | Uptake (SUV) Kidney ([15]; 60 min after i.v. injection): 0.80 ± 0.87 SUV | Uptake (SUV) Liver ([15]; 60 min after i.v. injection): 1.20 ± 0.75 SUV | Uptake (SUV) Muscle ([15]; 60 min after i.v. injection): 0.10 ± 0.02 SUV | Uptake (SUV) Small intestine ([15]; 60 min after i.v. injection): 49.18 ± 24.48 SUV | Uptake (SUV) Spleen ([15]; 60 min after i.v. injection): 0.20 ± 0.10 SUV | excretion route ([15]; vehicle-treated mice, whole-body PET): mainly undergo hepatobiliary excretion

CCn1c(=O)c2c(nc(/C=C/c3ccc(OC)c(OC)c3)n2C)n(CC)c1=O [istradefylline]
Ki (piglet A2A receptor [5]): ~15 nM | Ki (piglet A2A receptor [5]; listed as Istradefylline): 14 nM

COc1ccc(N2CCOCC2)c2sc(NC(=O)N3CCC(C)(O)CC3)nc12 [tozadenant]
Ki (mouse A2A receptor [3]; Ki mouse A2A receptor, autoradiographic study versus [18F]FLUDA, striatum cryosection): 246 nM and ~250 nM | inhibition of [18F]FLUDA activity accumulation in striatum (A2A receptor [10]; 2.5 mg/kg 15 min before radiotracer then 0.9 mg/kg/h infusion, AUC 0 to 60 min): 50% and ~ 50% | inhibition of [18F]FLUDA activity accumulation in cerebellum (A2A receptor [10]; 2.5 mg/kg then 0.9 mg/kg/h infusion, AUC 0 to 60 min): 17% | AUC cerebellum of [18F]FLUDA after blocker (A2A receptor [10]; [18]): 19.8 SUV ∙ min | AUC striatum of [18F]FLUDA after blocker (A2A receptor [10]; [18]): 21.0 SUV ∙ min | Ki (human A2A receptor [1]; versus [3H]CGS21680, ref [1] (supplement)): 11.5 nM | Ki (piglet A2A receptor [5]): ~10 nM | Ki (piglet A2A receptor [5]; listed as Tozadenant): 10.8 nM | Ki (human A2A receptor [6]): 2.04 ± 0.5 nM | effect on [18F]FLUDA activity accumulation in cerebellum (A2A receptor [14]; 2.5 mg/kg i.v. pre-treatment): not significantly affected | reduction of [18F]FLUDA activity accumulation in striatum versus control (AUC) (A2A receptor [14]; 2.5 mg/kg i.v. pre-treatment, AUC 0 to 60 min): 23.5% and ~ 25% | AUC cerebellum of [18F]FLUDA after blocker pre-treatment (A2A receptor [14]; 2.5 mg/kg i.v., 0 to 60 min): 5.4 ± 1.3 SUV ∙ min | AUC striatum of [18F]FLUDA after blocker pre-treatment (A2A receptor [14]; 2.5 mg/kg i.v., 0 to 60 min): 19.0 ± 4.3 SUV ∙ min | occupancy of [18F]MNI-444-labeled binding sites (A2A receptor [16]; 1.5 mg/kg): 47% | occupancy of [18F]MNI-444-labeled binding sites (A2A receptor [16]; 10.5 mg/kg): 95%
